Literature values in patent publication US20230255982A1 (priority 2020, published 2023).
Where two headings read alike, the source gives them in different places. Marks after values point to notes of the source that are not given here.

Test system: stage 3-4 CKD patients with diabetic nephropathy
Details: ASCEND

SMILES: COc1ccccc1Oc1c(NS(=O)(=O)c2ccc(C)cn2)nc(-c2ccncc2)nc1OC [Avosentan]
- Occurrence of CHF (25 mg, N = 455): 5.9%*
- Occurrence of ESRD (25 mg, N = 455): 4.4%
- Occurrence of CHF (50 mg, N = 478): 6.1%*
- Occurrence of ESRD (50 mg, N = 478): 5.0%
